According to ChEMBL document CHEMBL4673230, “Total Synthesis of Natural Lembehyne C and Investigation of Its Cytotoxic Properties” (J Nat Prod, 2020):

Key:
Jurkat [1] = test: Induction of mitochondrial membrane potential loss in human Jurkat cells assessed as early apoptotic cells at 400 nM after 4 hrs by MitoSense Red/7-AAD. flow cytometric analysis relative to control; format: functional
Jurkat [2] = test: Induction of cell cycle arrest in human Jurkat cells assessed as accumulation at G2 phase at 400 nM after 24 hrs by Guava Cell Cycle reagent based flow cytometric analysis relative to control; format: functional
Jurkat [3] = test: Induction of ROS generation in human Jurkat cells assessed as apoptotic cells at 200 nM after 4 hrs by MitoSox Red/annexin V-CF488A staining based flow cytometric analysis (reference value: 3.18%); format: functional
[4] = Effect on total AKT level in human jurkat cells at 400 nM by magnetic bead based immunoassay; format: cell-based; settings: 0.4 µM
Jurkat [5] = test: Induction of ROS generation in human Jurkat cells assessed as apoptotic cells at 200 nM after 24 hrs by MitoSox Red/annexin V-CF488A staining based flow cytometric analysis (reference value: 3.18%); format: functional
Jurkat [6] = test: Induction of ROS generation in human Jurkat cells assessed as living undamaged cells at 200 nM after 2 hrs by MitoSox Red/annexin V-CF488A staining based flow cytometric analysis (reference value: 95.44%); format: functional
Jurkat [7] = test: Induction of cell cycle arrest in human Jurkat cells assessed as accumulation at super-G2 phase at 50 nM after 24 hrs by Guava Cell Cycle reagent based flow cytometric analysis relative to control; format: functional
U-937 = test: Cytotoxicity against human U937 cells assessed as reduction in cell viability by 7-AAD staining based flow cytometric analysis; format: functional
Jurkat [8] = test: Induction of mitochondrial membrane potential loss in human Jurkat cells assessed as live cells at 200 nM after 4 hrs by MitoSense Red/7-AAD. flow cytometric analysis relative to control; format: functional
Jurkat [9] = test: Induction of cell cycle arrest in human Jurkat cells assessed as accumulation at super-G2 phase at 400 nM after 24 hrs by Guava Cell Cycle reagent based flow cytometric analysis relative to control; format: functional
Jurkat [10] = test: Induction of cell cycle arrest in human Jurkat cells assessed as accumulation at S phase at 100 nM after 24 hrs by Guava Cell Cycle reagent based flow cytometric analysis relative to control; format: functional
[11] = Effect on total ERK1/2 level in human jurkat cells at 400 nM by magnetic bead based immunoassay; format: cell-based; settings: 0.4 µM
Jurkat [12] = test: Induction of apoptosis in human Jurkat cells assessed as necrotic cells at 400 nM after 24 hrs by Annexin V/7-AAD staining.based flow cytometric analysis relative to control; format: functional
Jurkat [13] = test: Induction of cell cycle arrest in human Jurkat cells assessed as accumulation at G2/G1 phase at 200 nM after 24 hrs by Guava Cell Cycle reagent based flow cytometric analysis relative to control; format: functional
[14] = Effect on total STAT5 level in human jurkat cells at 400 nM by magnetic bead based immunoassay; format: cell-based; settings: 0.4 µM
Jurkat [15] = test: Induction of mitochondrial membrane potential loss in human Jurkat cells assessed as late apoptotic cells at 400 nM after 4 hrs by MitoSense Red/7-AAD. flow cytometric analysis relative to control; format: functional
Jurkat [16] = test: Induction of cell cycle arrest in human Jurkat cells assessed as accumulation at G2 phase at 100 nM after 24 hrs by Guava Cell Cycle reagent based flow cytometric analysis relative to control; format: functional
Jurkat [17] = test: Induction of mitochondrial membrane potential loss in human Jurkat cells after 4 hrs by flow cytometric analysis; format: functional, cell-based
Jurkat [18] = test: Induction of cell cycle arrest in human Jurkat cells assessed as accumulation at G2/G1 phase at 50 nM after 24 hrs by Guava Cell Cycle reagent based flow cytometric analysis relative to control; format: functional
Jurkat [19] = test: Induction of apoptosis in human Jurkat cells assessed as viable cells at 400 nM after 24 hrs by Annexin V/7-AAD staining.based flow cytometric analysis relative to control; format: functional; settings: read-out: Activity
Jurkat [20] = test: Induction of mitochondrial membrane potential loss in human Jurkat cells assessed as early apoptotic cells at 200 nM after 4 hrs by MitoSense Red/7-AAD. flow cytometric analysis relative to control; format: functional
Jurkat [21] = test: Induction of ROS generation in human Jurkat cells assessed as living undamaged cells at 200 nM after 24 hrs by MitoSox Red/annexin V-CF488A staining based flow cytometric analysis (reference value: 95.44%); format: functional
Jurkat [22] = test: Induction of apoptosis in human Jurkat cells assessed as early apoptotic cells at 400 nM after 24 hrs by Annexin V/7-AAD staining.based flow cytometric analysis relative to control; format: functional
Jurkat [23] = test: Induction of apoptosis in human Jurkat cells assessed as early apoptotic cells at 100 nM after 24 hrs by Annexin V/7-AAD staining.based flow cytometric analysis relative to control; format: functional
Jurkat [24] = test: Induction of cell cycle arrest in human Jurkat cells assessed as accumulation at sub-G1 phase at 200 nM after 24 hrs by Guava Cell Cycle reagent based flow cytometric analysis relative to control; format: functional
Jurkat [25] = test: Induction of apoptosis in human Jurkat cells assessed as viable cells at 200 nM after 24 hrs by Annexin V/7-AAD staining.based flow cytometric analysis relative to control; format: functional; settings: read-out: Activity
HL-60 = test: Cytotoxicity against human HL-60 cells assessed as reduction in cell viability by 7-AAD staining based flow cytometric analysis; format: functional
Jurkat [26] = test: Induction of mitochondrial membrane potential loss in human Jurkat cells assessed as late apoptotic cells at 200 nM after 4 hrs by MitoSense Red/7-AAD. flow cytometric analysis relative to control; format: functional
Jurkat [27] = test: Induction of cell cycle arrest in human Jurkat cells assessed as accumulation at sub-G1 phase at 100 nM after 24 hrs by Guava Cell Cycle reagent based flow cytometric analysis relative to control; format: functional
Jurkat [28] = test: Induction of cell cycle arrest in human Jurkat cells assessed as accumulation at S phase at 50 nM after 24 hrs by Guava Cell Cycle reagent based flow cytometric analysis relative to control; format: functional
Jurkat [29] = test: Induction of ROS generation in human Jurkat cells assessed as mitochondria damaged cells at 200 nM after 4 hrs by MitoSox Red/annexin V-CF488A staining based flow cytometric analysis (reference value: 0%); format: functional
Jurkat [30] = test: Induction of cell cycle arrest in human Jurkat cells assessed as accumulation at super-G2 phase at 200 nM after 24 hrs by Guava Cell Cycle reagent based flow cytometric analysis relative to control; format: functional
Jurkat [31] = test: Induction of apoptosis in human Jurkat cells assessed as necrotic cells at 50 nM after 24 hrs by Annexin V/7-AAD staining.based flow cytometric analysis relative to control; format: functional
[32] = Effect on total STAT3 level in human jurkat cells at 400 nM by magnetic bead based immunoassay; format: cell-based; settings: 0.4 µM
Jurkat [33] = test: Induction of ROS generation in human Jurkat cells assessed as apoptotic cells with clear mitochondrial damages at 200 nM after 24 hrs by MitoSox Red/annexin V-CF488A staining based flow cytometric analysis (reference value: 0.39%); format: functional
[34] = Effect on total CREB level in human jurkat cells at 400 nM by magnetic bead based immunoassay; format: cell-based; settings: 0.4 µM
Jurkat [35] = test: Induction of mitochondrial membrane potential loss in human Jurkat cells assessed as live cells at 400 nM after 4 hrs by MitoSense Red/7-AAD. flow cytometric analysis relative to control; format: functional

C#C[C@H](O)CCCCCCCCC/C=C\CC/C=C\CC/C=C\CCCCCCCCCCCCCCCC
Activity (Jurkat [1]): 3.32% | Activity (Jurkat [2]): 7.68% | Activity (Jurkat [3]): 3.67% | Activity [4]: Toxic | Activity (Jurkat [5]): 45.78% | Activity (Jurkat [6]): 70.77% | Activity (Jurkat [7]): 1.35% | IC50 (U-937): 124 nM | Activity (Jurkat [8]): 95.64% | Activity (Jurkat [9]): 1.85% | Activity (Jurkat [10]): 30.33% | Activity [11]: Toxic | Activity (Jurkat [12]): 1.01% | Activity (Jurkat [13]): 1.91% | Activity [14]: Toxic | Activity (Jurkat [15]): 2.87% | Activity (Jurkat [16]): 7.28% | Activity (Jurkat [17]): Dose-dependent effect | Activity (Jurkat [18]): 1.91% | viability at 0.4 µM (Jurkat [19]): 32.9% | Activity (Jurkat [20]): 0.9% | Activity (Jurkat [21]): 33.64% | Activity (Jurkat [22]): 15.86% | Activity (Jurkat [23]): 12.63% | Activity (Jurkat [24]): 18.01% | viability at 0.2 µM (Jurkat [25]): 36.1% | IC50 (HL-60): 93 nM | Activity (Jurkat [26]): 0.84% | Activity (Jurkat [27]): 13.99% | Activity (Jurkat [28]): 27.85% | Activity (Jurkat [29]): 0.16% | Activity (Jurkat [30]): 0.91% | Activity (Jurkat [31]): 2.4% | Activity [32]: Toxic | Activity (Jurkat [33]): 20.58% | Activity [34]: Toxic | Activity (Jurkat [35]): 63.45%
